Our source for the EC50 values is patent publication US10647718B2, “Compounds and use thereof in the expansion of hematopoietic stem cells and/or hematopoietic progenitor cells” (UNIVERSITÉ DE MONTRÉAL, priority 2014, dated 2020).

For one test, the system named is CD34+CD45RA− cell. Kind of test: Hematopoietic stem cell expansion assay (CD34+CD45RA− cell count versus DMSO vehicle cultures). It counts as cell-based. The settings on record: Homo sapiens, concentration that results in a 50% increase in CD34+CD45RA− cell count compared to vehicle cultures (DMSO), Table 1, pyridopyrrolopyrimidine series, read-out: Biological data EC50. Here is the method:
As used herein, the term “EC50” is intended to mean the concentration that results in a 50% increase in CD34+CD45RA− cell count compared to vehicle cultures (DMSO).
Screening Assay: screening assays were conducted as described in the inventors' previous patent application, WO 2013/110198.
The following biological assays were used to assess the effect of the compounds of the invention on hematopoietic stem cell expansion The results are illustrated in FIGS. 1 to 6. Culture medium: The culture medium used consisted of serum-free medium supplemented with the following recombinant cytokines: interleukin-6, thrombopoietin, Flt-3 ligand, and stem cell factor, each at a final concentration of 100 ng/ml, in the presence of vehicle (DMSO), positive control (SR1), or compound of the invention or a combination of compounds. Cell Culture: CD34+ cell purity of initial harvests was higher than 90%, as determined by flow cytometry. The CD34+ CD45RA− subpopulation reached purity levels higher than 70%. Cells were plated at 40,000 cells/ml and incubated for 7 to 12-days at 37° C. in 5% CO2. For long term cultures, 200,000 CD34+cells/ml from mobilized PB were plated with serum free media supplemented with interleukin-6, thrombopoietin, Flt3 ligand, and stem cell factor, each at a final concentration of 100 ng/ml, in the presence of vehicle (DMSO), positive control, or a compound of the invention at 500 nM.
On to `COC(=O)c1cnc2c(c1)[nH]c1nc(Cc3ccccc3)nc(NCCCN3CCCCC3)c12` [Compound 1, methyl 2-benzyl-4-((3-(piperidin-1-yl)propyl)amino)-9H-pyrido[2′,3′:4,5]pyrrolo[2,3-d]pyrimidine-7-carboxylate], for which the EC50 fell in the range of 250 to 500 nM.

With `COC(=O)c1cnc2c(c1)[nH]c1nc(Cc3ccsc3)nc(NCCCN3CCCCC3)c12` [Compound 2, methyl 4-((3-(piperidin-1-yl)propyl)amino)-2-(thiophen-3-ylmethyl)-9H-pyrido[2′,3′:4,5]pyrrolo[2,3-d]pyrimidine-7-carboxylate], the EC50 lay in the range of 250 to 500 nM.

Take `COC(=O)c1cnc2c(c1)[nH]c1nc(Cc3ccsc3)nc(SCCCN3CCCCC3)c12` [Compound 3, methyl 4-((3-(piperidin-1-yl)propyl)thio)-2-(thiophen-3-ylmethyl)-9H-pyrido[2′,3′:4,5]pyrrolo[2,3-d]pyrimidine-7-carboxylate]: the EC50 was 500 to 1000 nM.

Regarding `COC(=O)c1cnc2c(c1)[nH]c1nc(Cc3cccc(OC)c3)nc(NCCCN3CCCCC3C)c12` (stereo not drawn) [Compound 4, methyl 2-(3-methoxybenzyl)-4-((3-(2-methylpiperidin-1-yl)propyl)amino)-9H-pyrido[2′,3′:4,5]pyrrolo[2,3-d]pyrimidine-7-carboxylate], the EC50 was 250 to 500 nM.

Regarding `CCN(CC)CCNc1nc(Cc2cccc(OC)c2)nc2[nH]c3cc(C(=O)OC)cnc3c12` [Compound 5, methyl 4-((2-(diethylamino)ethyl)amino)-2-(3-methoxybenzyl)-9H-pyrido[2′,3′:4,5]pyrrolo[2,3-d]pyrimidine-7-carboxylate], the EC50 lay within 500 to 1000 nM.

Consider `COC(=O)c1cnc2c(c1)[nH]c1nc(Cc3ccccc3)nc(N(C)CCCN3CCCCC3)c12` [Compound 6, methyl 2-benzyl-4-(methyl(3-(piperidin-1-yl)propyl)amino)-9H-pyrido[2′,3′:4,5]pyrrolo[2,3-d]pyrimidine-7-carboxylate], for which the EC50 is < 100 nM.

Take `COC(=O)c1cnc2c(c1)[nH]c1nc(Cc3ccccc3C)nc(NCCCN3CCCCC3)c12` [Compound 7, methyl 2-(2-methylbenzyl)-4-((3-(piperidin-1-yl)propyl)amino)-9H-pyrido[2′,3′:4,5]pyrrolo[2,3-d]pyrimidine-7-carboxylate]: the EC50 was in the range of 250 to 500 nM.

Consider `COC(=O)c1cnc2c(c1)[nH]c1nc(Cc3ccccc3C)nc(NCCCN3CCCC3)c12` [Compound 8, methyl 2-(2-methylbenzyl)-4-((3-(pyrrolidin-1-yl)propyl)amino)-9H-pyrido[2′,3′:4,5]pyrrolo[2,3-d]pyrimidine-7-carboxylate], for which the EC50 was 250 to 500 nM.

With `CNCCCNc1nc(Cc2ccccc2C)nc2[nH]c3cc(C(=O)OC)cnc3c12` [Compound 9, methyl 4-((3-(methylamino)propyl)amino)-2-(2-methylbenzyl)-9H-pyrido[2′,3′:4,5]pyrrolo[2,3-d]pyrimidine-7-carboxylate], the EC50 lay in the range of 500 to 1000 nM.

With `Cn1nnc(-c2cnc3c(c2)[nH]c2nc(Cc4ccccc4)nc(N[C@H]4CC[C@H](N)CC4)c23)n1` [Compound 10, (1R,4R)—N^1-(2-benzyl-7-(2-methyl-2H-tetrazol-5-yl)-9H-pyrido[2′,3′:4,5]pyrrolo[2,3-d]pyrimidin-4-yl)cyclohexane-1,4-diamine], the EC50 lay in the range of 250 to 500 nM.

For the compound `COC(=O)c1cnc2c(c1)[nH]c1nc(Cc3cccc(F)c3)nc(NCCCN3CCCCC3)c12` [Compound 11, methyl 2-(3-fluorobenzyl)-4-((3-(piperidin-1-yl)propyl)amino)-9H-pyrido[2′,3′:4,5]pyrrolo[2,3-d]pyrimidine-7-carboxylate], the EC50 was > 1000 nM.

Regarding `COC(=O)c1cnc2c(c1)[nH]c1nc(Cc3cccc(F)c3)nc(NCCCN(C)CCCN)c12` [Compound 12, methyl 4-((3-((3-aminopropyl)(methyl)amino)propyl)amino)-2-(3-fluorobenzyl)-9H-pyrido[2′,3′:4,5]pyrrolo[2,3-d]pyrimidine-7-carboxylate], the EC50 is 250 to 500 nM.

For `CNCCCNc1nc(Cc2cccc(F)c2)nc2[nH]c3cc(C(=O)OC)cnc3c12` [Compound 13], the EC50 is > 1000 nM.

Take `COC(=O)c1cnc2c(c1)[nH]c1nc(Cc3ccccc3)nc(NCC(C)CN(C)C)c12` (stereo not drawn) [Compound 14, methyl 2-benzyl-4-((3-(dimethylamino)-2-methylpropyl)amino)-9H-pyrido[2′,3′:4,5]pyrrolo[2,3-d]pyrimidine-7-carboxylate]: the EC50 fell in the range of 500 to 1000 nM.

As for `COC(=O)c1cnc2c(c1)[nH]c1nc(Cc3ccccc3)nc(N3CCC(N(C)C)CC3)c12` [Compound 15, methyl 2-benzyl-4-(4-(dimethylamino)piperidin-1-yl)-9H-pyrido[2′,3′:4,5]pyrrolo[2,3-d]pyrimidine-7-carboxylate], the EC50 lay within 100 to 250 nM.

Still in this test, the particulars now being: Homo sapiens, concentration that results in a 50% increase in CD34+CD45RA− cell count compared to vehicle cultures (DMSO), Table 1′, pyrido[4,3-b]indole series, read-out: Biological data EC50.
As to `COC(=O)c1ccc2c(c1)[nH]c1ccnc(NCCCN3CCCCC3)c12` [1′, methyl 1-((3-(piperidin-1-yl)propyl)amino)-5H-pyrido[4,3-b]indole-7-carboxylate], the EC50 is > 1000 nM.

With `COC(=O)c1ccc2c(c1)[nH]c1cc(Cc3ccccc3)nc(NCCCN3CCCCC3)c12` [2′, methyl 3-benzyl-1-((3-(piperidin-1-yl)propyl)amino)-5H-pyrido[4,3-b]indole-7-carboxylate], the EC50 is < 100 nM.

On to `COC(=O)c1ccc2c(c1)[nH]c1cc(Cc3ccccc3)nc(NCCN3CCCC3)c12` [3′, methyl 3-benzyl-1-((2-(pyrrolidin-1-yl)ethyl)amino)-5H-pyrido[4,3-b]indole-7-carboxylate], for which the EC50 was < 100 nM.

On to `COC(=O)c1ccc2c(c1)[nH]c1cc(Cc3ccccc3)nc(N(C)CCCN(C)C)c12` [4′, methyl 3-benzyl-1-((3-(dimethylamino)propyl)(methyl)amino)-5H-pyrido[4,3-b]indole-7-carboxylate], for which the EC50 was < 100 nM.

With `Cn1nnc(-c2ccc3c(c2)[nH]c2cc(Cc4ccccc4)nc(NCCCN4CCCCC4)c23)n1` [5′, 3-benzyl-7-(2-methyl-2H-tetrazol-5-yl)-N-(3-(piperidin-1-yl)propyl)-5H-pyrido[4,3-b]indol-1-amine], the EC50 is 100 to 250 nM.

In the case of `COC(=O)c1ccc2c(c1)[nH]c1cc(Cc3cccc(OC)c3)nc(NCCCCN3CCCC3)c12` [6′, methyl 3-(3-methoxybenzyl)-1-((4-(pyrrolidin-1-yl)butyl)amino)-5H-pyrido[4,3-b]indole-7-carboxylate], the EC50 is < 100 nM.

For `COC(=O)c1ccc2c(c1)[nH]c1cc(Cc3cccc(O)c3)nc(NCCCCN3CCCC3)c12` [7′, methyl 3-(3-hydroxybenzyl)-1-((4-(pyrrolidin-1-yl)butyl)amino)-5H-pyrido[4,3-b]indole-7-carboxylate], the EC50 was < 100 nM.

As for `COC(=O)c1ccc2c(c1)[nH]c1cc(Cc3ccsc3)nc(NCCN(C)CCNC(=O)OC(C)(C)C)c12` [8′, methyl 1-((2-((2-((tert-butoxycarbonyl)amino)ethyl)(methyl)amino)ethyl)amino)-3-(thiophen-3-ylmethyl)-5H-pyrido[4,3-b]indole-7-carboxylate], the EC50 was > 1000 nM.

For the compound `COC(=O)c1ccc2c(c1)[nH]c1cc(Cc3cccnc3)nc(NCCCN3CCOCC3)c12` [9′, methyl 1-((3-morpholinopropyl)amino)-3-(pyridin-3-ylmethyl)-5H-pyrido[4,3-b]indole-7-carboxylate], the EC50 was 500 to 1000 nM.

Consider `COC(=O)c1ccc2c(c1)[nH]c1cc(Cc3ccsc3)nc(NCCCN3CCCCC3)c12` [10′, methyl 1-((3-(piperidin-1-yl)propyl)amino)-3-(thiophen-3-ylmethyl)-5H-pyrido[4,3-b]indole-7-carboxylate], for which the EC50 is 100 to 250 nM.

Take `COC(=O)c1ccc2c(c1)[nH]c1cc(Cc3cccnc3)nc(N3CCC(N4CCCC4)CC3)c12` [11′, methyl 3-(pyridin-3-ylmethyl)-1-(4-(pyrrolidin-1-yl)piperidin-1-yl)-5H-pyrido[4,3-b]indole-7-carboxylate]: the EC50 was > 1000 nM.

With `CNCCCN(C)c1nc(Cc2cccnc2)cc2[nH]c3cc(C(=O)OC)ccc3c12` [12′, methyl 1-(methyl(3-(methylamino)propyl)amino)-3-(pyridin-3-ylmethyl)-5H-pyrido[4,3-b]indole-7-carboxylate], the EC50 is > 1000 nM.

As for `COC(=O)c1ccc2c(c1)[nH]c1cc(Cc3ccsc3)nc(N[C@H]3CC[C@H](N)CC3)c12` [13′, methyl 1-(((1r,4r)-4-aminocyclohexyl)amino)-3-(thiophen-3-ylmethyl)-5H-pyrido[4,3-b]indole-7-carboxylate], the EC50 fell in the range of 100 to 250 nM.

With `COC(=O)c1ccc2c(c1)[nH]c1cc(Cc3ccsc3)nc(NCCN(C)CCN)c12` [14′, methyl 1-((2-((2-aminoethyl)(methyl)amino)ethyl)amino)-3-(thiophen-3-ylmethyl)-5H-pyrido[4,3-b]indole-7-carboxylate], the EC50 is 250 to 500 nM.

For `COC(=O)c1ccc2c(c1)[nH]c1cc(Cc3ccsc3)nc(NCCC[N+]3(CC(N)=O)CCCCC3)c12` [15′, 1-(2-amino-2-oxoethyl)-1-(3-((7-(methoxycarbonyl)-3-(thiophen-3-ylmethyl)-5H-pyrido[4,3-b]indol-1-yl)amino)propyl)piperidin-1-ium iodide], the EC50 was < 100 nM.
